From patent US20200405696A1, “INHIBITORS OF INDOLEAMINE 2,3-DIOXYGENASE AND/OR TRYPTOPHAN 2,3-DIOXYGENASE” (IDORSIA PHARMACEUTICALS LTD, priority 2018, published 2020)

Experiments:
[1] = biological target: T1, Recombinant full-length human IDO1 (Homo sapiens, UniProt P14902); assay: IDO1 enzymatic assay (NFK quantified by LCMS); type: biochemical; conditions: 2 nM enzyme, 5 μM L-tryptophan, pH6.5, 30 minutes pre-incubation at RT; mean values when measured multiple times; read-out: hIDO activity (IC50 in nM)
T1 construct: Recombinant full-length human IDO1 with a N-terminal hexahistidine tag; hexahistidine (His6) (N); made in house; host or cells: E. coli
Method in brief: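 His-tagged human IDO1 (2 nM) in pH 6.5 phosphate buffer with ascorbate, methylene blue and catalase was preincubated with compound (10 μM–0.5 nM, 0.6% DMSO) for 30 min at RT. The reaction then ran with 5 μM L-Trp for 30 min. NFK was measured by LCMS against a d5-Trp standard, and IC50 was obtained by four-parameter fit.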

[2] = biological target: T2, Recombinant human TDO comprising amino acids 19-407 (Homo sapiens, UniProt P48775); assay: TDO2 enzymatic assay (NFK quantified by LCMS); type: biochemical; conditions: 15 nM enzyme, 200 μM L-tryptophan, pH7, 30 minutes pre-incubation at RT; mean values when measured multiple times; read-out: hTDO activity (IC50 in nM)
T2 construct: Recombinant human TDO comprising amino acids 19-407 with a N-terminal hexahistidine tag; hexahistidine (His6) (N); made in house; host or cells: E. coli
Method in brief: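 NFK formed over 30 min at RT from 200 μM L-tryptophan was measured by LCMS, normalized to d5-tryptophan, after compound (0.5 nM–10 μM, duplicates, 0.6% DMSO) was preincubated 30 min with 15 nM recombinant His-tagged TDO 19-407 in phosphate buffer pH 7. IC50 from four-parameter logistic fit; repeats averaged.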

T1 sequence (P14902 whole entry): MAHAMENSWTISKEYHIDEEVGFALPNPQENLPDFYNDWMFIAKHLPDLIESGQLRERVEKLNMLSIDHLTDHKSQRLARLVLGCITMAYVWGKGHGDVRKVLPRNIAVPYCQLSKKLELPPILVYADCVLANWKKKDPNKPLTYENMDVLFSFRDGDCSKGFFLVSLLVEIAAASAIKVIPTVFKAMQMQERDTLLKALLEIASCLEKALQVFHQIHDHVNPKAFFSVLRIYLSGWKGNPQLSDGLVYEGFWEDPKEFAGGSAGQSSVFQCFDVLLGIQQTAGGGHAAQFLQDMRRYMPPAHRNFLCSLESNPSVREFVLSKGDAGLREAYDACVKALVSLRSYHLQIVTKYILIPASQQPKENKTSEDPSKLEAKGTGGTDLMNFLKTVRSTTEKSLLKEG
T2 sequence (P48775 19-406 limits assumed): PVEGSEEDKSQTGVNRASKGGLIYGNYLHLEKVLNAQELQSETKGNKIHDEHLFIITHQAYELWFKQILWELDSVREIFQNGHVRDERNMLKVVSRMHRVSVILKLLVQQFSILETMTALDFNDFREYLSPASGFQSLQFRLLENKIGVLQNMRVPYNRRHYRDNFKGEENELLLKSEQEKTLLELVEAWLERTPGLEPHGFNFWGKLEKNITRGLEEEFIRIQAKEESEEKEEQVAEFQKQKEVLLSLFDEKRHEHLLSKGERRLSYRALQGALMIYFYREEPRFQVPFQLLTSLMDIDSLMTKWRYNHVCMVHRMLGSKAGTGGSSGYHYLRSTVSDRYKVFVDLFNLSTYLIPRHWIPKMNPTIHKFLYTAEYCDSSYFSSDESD

| SMILES | IC50 [1] [nM] | IC50 [2] [nM] |
| --- | --- | --- |
| OC(c1cn(-c2ccc(OCc3ccccn3)cc2)nn1)c1c(C2CC2)sc2cncn12 (racemic) [Example 203, rac-(2-Cyclopropyl-imidazo[5,1-b]thiazol-3-yl)-{1-[4-(pyridin-2-ylmethoxy)-phenyl]-1H-[1,2,3]triazol-4-yl}-methanol] | 1350 | > 10200 |
| OC(c1cn(-c2cccc3ccncc23)nn1)c1c(C2CC2)sc2cncn12 (racemic) [Example 22, rac-(2-Cyclopropyl-imidazo[5,1-b]thiazol-3-yl)-(1-isoquinolin-8-yl-1H-[1,2,3]triazol-4-yl)-methanol] | 39.6 | > 10200 |
| CCc1sc2cncn2c1C(O)c1cn(-c2ccc(S(=O)(=O)NC)cc2)nn1 (racemic) [Example 225, rac-4-{4-[(2-Ethyl-imidazo[5,1-b]thiazol-3-yl)-hydroxy-methyl]-[1,2,3]triazol-1-yl}-N-methyl-benzenesulfonamide] | 47.2 | > 10200 |
| CCc1sc2cncn2c1C(O)c1cn(-c2ccccc2)nn1 (racemic) [Example 12, rac-(2-Ethyl-imidazo[5,1-b]thiazol-3-yl)-(1-phenyl-1H-[1,2,3]triazol-4-yl)-methanol] | 20.8 | 6740 |
| OC(c1cn(-c2ccc(OCCN3CCCCC3)cc2)nn1)c1c(C2CC2)sc2cncn12 (racemic) [Example 89, rac-(2-Cyclopropyl-imidazo[5,1-b]thiazol-3-yl)-{1-[4-(2-piperidin-1-yl-ethoxy)-phenyl]-1H-[1,2,3]triazol-4-yl}-methanol] | 204 | > 10200 |
| OC(c1ccc(-c2ccncc2)s1)c1c(C2CC2)sc2cncn12 (racemic) [Example 168, rac-(2-Cyclopropyl-imidazo[5,1-b]thiazol-3-yl)-(5-pyridin-4-yl-thiophen-2-yl)-methanol] | 189 | 1060 |
| CC(F)(F)c1sc2cncn2c1C(O)c1cn(-c2ccc(O)c(Cl)c2)nn1 (racemic) [Example 329, rac-2-Chloro-4-(4-{[2-(1,1-difluoro-ethyl)-imidazo[5,1-b]thiazol-3-yl]-hydroxy-methyl}-[1,2,3]triazol-1-yl)-phenol] | 2.49 | 9930 |

Further lines, results first:

| IC50 [1] [nM] | IC50 [2] [nM] | SMILES |
| --- | --- | --- |
| 4.13 | 7010 | COc1ccc(-n2nnc(C(O)c3c(C4CC4)sc4cncn34)c2C)cc1 (racemic) [Example 252, rac-(2-Cyclopropyl-imidazo[5,1-b]thiazol-3-yl)-[1-(4-methoxy-phenyl)-5-methyl-1H-[1,2,3]triazol-4-yl]-methanol] |
| 8.77 | > 10200 | O[C@@H](c1cn(-c2ccc(OCC3(F)COC3)cc2)nn1)c1c(C2CC2)sc2cncn12 [Example 145a, (R)-(2-Cyclopropyl-imidazo[5,1-b]thiazol-3-yl)-{1-[4-(3-fluoro-oxetan-3-ylmethoxy)-phenyl]-1H-[1,2,3]triazol-4-yl}-methanol] |
| 2.99 | > 10200 | COc1cc(F)c(-n2cc(C(O)c3c(C4CC4)sc4cncn34)nn2)cc1F (racemic) [Example 318, rac-(2-Cyclopropyl-imidazo[5,1-b]thiazol-3-yl)-[1-(2,5-difluoro-4-methoxy-phenyl)-1H-[1,2,3]triazol-4-yl]-methanol] |
| 24.1 | > 10200 | Cc1ccc(-n2cc(C(O)c3c(C4CC4)sc4cncn34)nn2)cc1O (racemic) [Example 218, rac-5-{4-[(2-Cyclopropyl-imidazo[5,1-b]thiazol-3-yl)-hydroxy-methyl]-[1,2,3]triazol-1-yl}-2-methyl-phenol] |
| 85.6 | > 10200 | COc1ccc(-n2cc(C(O)c3c(C4=CCCC4)sc4cncn34)nn2)cc1 (racemic) [Example 259, rac-(2-(Cyclopent-1-enyl)-imidazo[5,1-b]thiazol-3-yl)-[1-(4-methoxy-phenyl)-1H-[1,2,3]triazol-4-yl]-methanol] |
